Data set [1] concerns KB-31 tumor xenograft. The data set can be described thus: TUNEL staining of the tumor tissue. In kind it is in vivo, nude mice. The note with it: 4 mg/kg doxorubicin i.v. weekly for 3 weeks. The protocol:
A section of the tumor from each animal was used for TUNEL staining. The slides containing the tumor section were washed, fixed, and permeabilized before performance of TUNEL staining according to the manufacturer's instructions (Invitrogen, Carlsbad, Calif.). Nuclei were stained by Hoechst 33342 dye. The number of TUNEL positive cells (green staining) was assessed under a fluorescent microscope (200×). The same sections were also used for recording of the red fluorescent images of the doxorubicin that was present in the particles or the tissues. At least three fields were counted by the same investigator to calculate the percentage of TUNEL positive cells.

Data set [2] can be described thus: Body weight and major organ histology (Example 8). The class given is in vivo, nude mice. To be noted: weekly i.v. for 3 weeks. The protocol:
(§1) Nude mouse studies to determine the effect of doxorubicin-loaded NP3 on tumor shrinkage. One week after tumor implantation, the KB-31 tumor-bearing mice were randomly divided into four groups of five animals each. These groups were used for comparing the effects of saline, empty nanoparticles, free doxorubicin, and doxorubicin-loaded NP3, respectively. The latter group received intravenous administration of 120 mg/kg (˜2.4 mg per animal) NP3, which is equivalent to a doxorubicin dose of 4 mg/kg (˜0.08 mg per animal), weekly for 3 weeks. The free doxorubicin group received the same drug dose weekly for 3 weeks, while the group receiving empty NP3 was treated with 120 mg/kg on a weekly basis. The fourth group was treated with saline as control. The body weight and tumor size were accurately recorded twice per week. Tumor weight was calculated according to the formula: Tumor weight (mg)=(length in mm)× (width in mm)^2/2 (Meng et al., ACS Nano, vol. 4, pp. 2773-2783, 2010).
Appropriate size sections of the tumor, liver, kidney, spleen, lung, heart, and brain were fixed in 10% formalin and then embedded into paraffin. Tissue sections of 4 μm thickness were mounted on glass slides by the UCLA Division of Laboratory Animal Medicine (DLAM) diagnostic laboratory services. The sections were stained with hematoxylin-eosin (H&E) and examined by light microscopy. The slides were read by an experienced veterinary pathologist.

The subject of data set [3] is KB-V1 cells. The data set can be described thus: MTS cytotoxicity of free Dox, KB-V1. In kind it is cell-based. To be noted: 72 hrs. The method, then:
(§2) KB-31 and KB-V1 cells were plated at 1×10^4 cells per well in 96 well plate. The cells were treated with free Dox in solution in doses ranging from 0.05-3.2 μg/ml (KB-31) and 0.1-64 μg/ml (KB-V1) for 72 hrs. The cell viability was determined by the MTS assay. The treated cells were incubated with MTS working solution for 2-3 hrs before measurement. The mean absorbance of non-exposed cells served as the reference value for calculating 100% cellular viability. To view Pgp expression, the cells were washed in PBS and the pellets lysed in a buffer containing Triton X-100 and protease inhibitors after centrifugation. The protein content of the supernatants was determined by the Bradford method. 100 μg total protein was electrophoresed by 10% SOS-PAGE and transferred to a PVDF membrane. After blocking, the membranes were incubated with 1:1000 dilution of primary monoclonal antibody to MDR1 (anti-Pgp C219, Abeam). The membranes were overlayed with goat anti-mouse secondary antibody (1:1000 dilution) before the addition of the HRP-conjugated streptavidin-biotin complex. The proteins were detected using ECL reagent according to the manufacturer's instructions.

In data set [4] the test system is KB-31 tumor xenograft. Nature of the data set: Tumor growth inhibition by doxorubicin-loaded NP3. In kind it is in vivo, nude mice. To be noted: 4 mg/kg doxorubicin i.v. weekly for 3 weeks, tumor weight at sacrifice. The method, then: Athymic BALB/c nu/nu female mice (6 weeks) were purchased from the Charles River Laboratory, and maintained under pathogen-free conditions. All animal experiments were performed using protocols approved by the UCLA Animal Research Committee. The tumor cell suspension (0.1 ml, 5×10^6 cells/mL) was injected subcutaneously into the mice. To perform imaging, the tumor-bearing animals were used 2.5 weeks after tumor implantation. In the tumor growth inhibition experiments, the nude mice were randomly divided into 4 groups and received the listed range of treatments, which commenced 1 week after tumor implantation.
as §1, with “The free doxorubicin group received the same drug dose weekly for 3 weeks, while the group receiving empty NP3 was treated with 120 mg/kg on a weekly basis. The fourth group was treated with saline as control.” left out

Another data set concerns KB-31 cells. Nature of the data set: MTS cytotoxicity of free Dox, KB-31. In kind it is cell-based. To be noted: KB-31, free Dox, 72 hrs. The protocol: as §2
The conditions of data set [5]: cited from earlier work.
The nature of data set [6]: Blood biochemistry to assess possible toxicity (Example 8). In kind it is in vivo. To be noted: serum, tumor-bearing nude mice, weekly i.v. for 3 weeks, day 21. The method, then: as §1
Following the animal experiments described above, the mice were sacrificed on 21st day and serum collected by centrifuging the whole blood at 5,000 rpm for 15 min. The biochemical parameters, including cholesterol (CHOL), triglycerides (TRG), alanine aminotransferase (ALT), aspartate aminotransferase (AST), total bilirubin (TBILI), glucose (GLU), inorganic phosphorus (PHOS), total protein (TPR), calcium (CAL), blood urea nitrogen (BUN), creatinine (CRE), and albumin (ALB) were assayed by UCLA Division of Laboratory Animal Medicine (DLAM) diagnostic laboratory services.

Data set [7] deals with KB-V1 cells. Nature of the data set: Cytotoxicity of Dox formulations in KB-V1 cells (MTS, 72 hrs). The class given is cell-based. To be noted: KB-V1, Tariquidar 50 nM. The protocol:
To measure cytotoxicity of the different Dox formulations, KB-V1 cells were treated with free Dox, Dox-MSNP, PEI-Dox-MSNP and siRNA-PEI-Dox-MSNP, respectively. For the latter two particle types, incubation time was for 16 hrs before replenishment of the old medium with fresh complete DMEM and performance of a MTS assay at 72 hrs. Based on the absorption readout at 490 nm, the IC50 of free and Dox-loaded MSNP were calculated. The induction of apoptosis at 72 hours was assessed through the use of Annexin V-SYTOX Blue. Briefly, 5×10^5 cells were harvested and stained by FITC-Annexin V-SYTOX Blue working solution (Annexin V, Trevigen; SYTOX Blue, Invitrogen) at room temperature for 15 min. The cells were washed in binding buffer before performance of flow cytometry (Becton Dickinson, Mountain View, Calif.). Date analysis was performed by BD CellQuest. To confirm the flow data in which there may be a minor overlap of Dox with FITC-Annexin V, a TUNEL detection kit was used according to the manufacturer's instructions to confirm the induction of apoptosis. Briefly, 72 hrs following treatment with free Dox or Dox loaded particles, cells were washed, fixed, and permeabilized before TUNEL staining. The number of TUNEL-positive cells was assessed under a fluorescent microscope (200×). At least 3 fields were counted by the same investigator to calculate the percentage of TUNEL positive cells.

`COc1cccc2c1C(=O)c1c(O)c3c(c(O)c1C2=O)C[C@@](O)(C(=O)CO)C[C@@H]3O[C@H]1C[C@H](N)[C@H](O)[C@H](C)O1.Cl` [Free Dox, doxorubicin hydrochloride]: in the data set on KB-31 tumor xenograft [1], the “TUNEL-positive cells in tumor tissue” value is recorded as approximately 13%. For the same compound, in data set [2] (H&E), the kidney histology entry is “glomerular swelling” and the liver histology result is recorded as “prominent hepatic steatosis”. The body weight result in data set [2] (compared to saline) is listed as “cyclical decrease in body weight”. In the data set on KB-V1 cells [3], the “IC50 (MTS)” value was 53.0 µg/mL. Moreover, the tumor inhibition in the data set with KB-31 tumor xenograft [4] was determined as 70%. In addition, the “IC50 (MTS)” value in the data set on KB-31 cells turned out to be 0.21 µg/mL. In addition, the pKa in data set [5] was 8.2. In data set [6], the ALB stood at 2.4 ± 0.2 g/dL, the ALT was 36.8 ± 8.0 u/L, the AST turned out to be 347.8 ± 73.9 U/L and the BUN is reported as 17.3 ± 2.6 mg/dL. In data set [6], the CAL turned out to be 9.0 ± 0.5 mg/dL, the CHOL was determined as 97.8 ± 12.8 mg/dL, the CRE is on record as 0.3 ± 0.1 mg/dL and the GLU is given as 102.5 ± 29.2 mg/dL. In addition, in data set [6], the PHOS is given as 9.5 ± 0.8 mg/dL, the TBIL came out at 0.4 ± 0.0 mg/dL, the TPR amounted to 5.0 ± 0.4 g/dL and the TRG is given as 91.5 ± 21.2 mg/dL.
On to `CCOc1ccc(-c2nc3ccc(-c4nc5ccc(N6CCN(C)CC6)cc5[nH]4)cc3[nH]2)cc1` [Hoechst 33342], for which the pKa in data set [5] is 11.9.
Take `COc1cc2c(cc1OC)CN(CCc1ccc(NC(=O)c3cc(OC)c(OC)cc3NC(=O)c3cnc4ccccc4c3)cc1)CC2` [Tariquidar]: the “effect of co-administration with free Dox on drug sensitivity” value in the data set on KB-V1 cells [7] is on record as “partially restores drug sensitivity”.

As usually defined, the pKa is the pH at which an ionisable group is half protonated.

These data come from US10343903B2, “Cationic polymer coated mesoporous silica nanoparticles and uses thereof” (The Regents of the University of California, priority 2010, dated 2019).
